Results published in patent publication US20160199481A1 (priority 2013, published 2016).
“Also recorded” adds a separate entry of the source.

What was measured:
Assay type in all cases: cell-based, influenza A
[1] = system: PassMut HA/G147R NA virus
[2] = system: WT HA/G147R NA virus
[3] = system: WT HA/G147R NA virus; remark: listed apart in the source
[4] = system: G147R NA-only VLPs
[5] = system: PassMut HA/G147R NA virus; remark: listed apart in the source

Substance: oseltamivir
- neutralization of infectivity (percent infectivity remaining) [1]: nearly completely neutralized by oseltamivir; also recorded: strongly neutralized at low nanomolar oseltamivir concentrations
- neutralization of infectivity (percent infectivity remaining) [2]: partially neutralized by oseltamivir; also recorded: intermediate phenotype
- inhibition of agglutination by oseltamivir [3]: uninhibited at all oseltamivir concentrations tested
- oseltamivir concentration down to which agglutination was inhibited [4]: 0.12 nM
- reversal of agglutination by G147R VLPs [4]: reversed the agglutination
- oseltamivir concentration down to which agglutination was inhibited [5]: 1.5 nM
